Laboratory results from PubChem BioAssay (NCI).
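Compound exposure: 48 hours, 5 concentrations, 96-well plates. At the TGI there is no net growth.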

How the values were obtained:
Assay in all cases: NCI anticancer screen, dose series, 48 h
OVCAR-3 ovarian = test system: OVCAR-3 ovarian
COLO 205 colon = test system: COLO 205 colon
MDA-N = test system: MDA-N
CAKI-1 renal = test system: CAKI-1 renal
SF-539 CNS = test system: SF-539 CNS
SN12C renal = test system: SN12C renal
NCI/ADR-RES ovarian = test system: NCI/ADR-RES ovarian
SK-MEL-28 melanoma = test system: SK-MEL-28 melanoma
SF-295 CNS = test system: SF-295 CNS
HOP-92 NSCLC = test system: HOP-92 NSCLC
HOP-62 NSCLC = test system: HOP-62 NSCLC
OVCAR-4 ovarian = test system: OVCAR-4 ovarian
A498 renal = test system: A498 renal
SK-MEL-5 melanoma = test system: SK-MEL-5 melanoma
HCT-116 colon = test system: HCT-116 colon
NCI-H226 lung = test system: NCI-H226 lung
MDA-MB-231 breast = test system: MDA-MB-231 breast
U251 CNS = test system: U251 CNS
MOLT-4 leukemia = test system: MOLT-4 leukemia
MALME-3M melanoma = test system: MALME-3M melanoma
786-0 renal = test system: 786-0 renal
UO-31 renal = test system: UO-31 renal
UACC-257 melanoma = test system: UACC-257 melanoma
NCI-H460 lung = test system: NCI-H460 lung
ACHN renal = test system: ACHN renal
MCF7 breast = test system: MCF7 breast
CCRF-CEM leukemia = test system: CCRF-CEM leukemia
NCI-H522 lung = test system: NCI-H522 lung
OVCAR-5 ovarian = test system: OVCAR-5 ovarian
KM12 colon = test system: KM12 colon
OVCAR-8 ovarian = test system: OVCAR-8 ovarian
PC-3 prostate = test system: PC-3 prostate
RXF 393 renal = test system: RXF 393 renal
MDA-MB-435 = test system: MDA-MB-435
SW-620 colon = test system: SW-620 colon
SNB-19 CNS = test system: SNB-19 CNS
SK-MEL-2 melanoma = test system: SK-MEL-2 melanoma
SNB-75 CNS = test system: SNB-75 CNS
NCI-H23 lung = test system: NCI-H23 lung
TK-10 renal = test system: TK-10 renal
SR leukemia = test system: SR leukemia
HL-60(TB) leukemia = test system: HL-60(TB) leukemia
M14 melanoma = test system: M14 melanoma
SK-OV-3 ovarian = test system: SK-OV-3 ovarian
T-47D breast = test system: T-47D breast
BT-549 breast = test system: BT-549 breast
HT29 colon = test system: HT29 colon
IGROV1 ovarian = test system: IGROV1 ovarian
SF-268 CNS = test system: SF-268 CNS
LOX IMVI melanoma = test system: LOX IMVI melanoma
UACC-62 melanoma = test system: UACC-62 melanoma
HS 578T breast = test system: HS 578T breast
DU-145 prostate = test system: DU-145 prostate
HCT-15 colon = test system: HCT-15 colon
A549 NSCLC = test system: A549 NSCLC
K-562 leukemia = test system: K-562 leukemia
RPMI-8226 leukemia = test system: RPMI-8226 leukemia
EKVX NSCLC = test system: EKVX NSCLC
HCC-2998 colon = test system: HCC-2998 colon

In the case of `COc1cc(S(=O)(=O)Nc2nc(-c3ccc(N4C(=O)/C(=C\c5cccs5)N=C4c4ccccc4)cc3)cs2)ccc1Cl`, the TGI (OVCAR-3 ovarian) is reported as > 100 µM, the TGI (COLO 205 colon) is reported as > 100 µM and the TGI (MDA-N) is reported as > 100 µM. For the same molecule, the TGI (CAKI-1 renal) was > 100 µM, the TGI (SF-539 CNS) was > 100 µM and the TGI (SN12C renal) was > 100 µM. The TGI (NCI/ADR-RES ovarian) was > 100 µM, the TGI (SK-MEL-28 melanoma) was > 100 µM and the TGI (SF-295 CNS) was > 100 µM. The TGI (HOP-92 NSCLC) was 89.8 µM, the TGI (HOP-62 NSCLC) was > 100 µM and the TGI (OVCAR-4 ovarian) was > 100 µM. The TGI (A498 renal) was > 100 µM, the TGI (SK-MEL-5 melanoma) was > 100 µM and the TGI (HCT-116 colon) was > 100 µM. For the same molecule, the TGI (NCI-H226 lung) was > 100 µM, the TGI (MDA-MB-231 breast) was 56.6 µM and the TGI (U251 CNS) was > 100 µM. The TGI (MOLT-4 leukemia) was > 100 µM, the TGI (MALME-3M melanoma) was 55.5 µM and the TGI (786-0 renal) was > 100 µM. For the same molecule, the TGI (UO-31 renal) was > 100 µM, the TGI (UACC-257 melanoma) was > 100 µM and the TGI (NCI-H460 lung) was > 100 µM. For the same molecule, the TGI (ACHN renal) was > 100 µM, the TGI (MCF7 breast) was > 100 µM and the TGI (CCRF-CEM leukemia) was > 100 µM. The TGI (NCI-H522 lung) was 83.8 µM, the TGI (OVCAR-5 ovarian) was > 100 µM and the TGI (KM12 colon) was > 100 µM. For the same molecule, the TGI (OVCAR-8 ovarian) was > 100 µM, the TGI (PC-3 prostate) was > 100 µM and the TGI (RXF 393 renal) was > 100 µM. For the same molecule, the TGI (MDA-MB-435) was > 100 µM, the TGI (SW-620 colon) was > 100 µM and the TGI (SNB-19 CNS) was > 100 µM. The TGI (SK-MEL-2 melanoma) was 64.8 µM, the TGI (SNB-75 CNS) was > 100 µM and the TGI (NCI-H23 lung) was > 100 µM. The TGI (TK-10 renal) was > 100 µM, the TGI (SR leukemia) was > 100 µM and the TGI (HL-60(TB) leukemia) was > 100 µM. The TGI (M14 melanoma) was > 100 µM, the TGI (SK-OV-3 ovarian) was > 100 µM and the TGI (T-47D breast) was > 100 µM. For the same molecule, the TGI (BT-549 breast) was 83.4 µM, the TGI (HT29 colon) was > 100 µM and the TGI (IGROV1 ovarian) was > 100 µM. The TGI (SF-268 CNS) was 59 µM, the TGI (LOX IMVI melanoma) was > 100 µM and the TGI (UACC-62 melanoma) was 65.5 µM. For the same molecule, the TGI (HS 578T breast) was 63.9 µM, the TGI (DU-145 prostate) was > 100 µM and the TGI (HCT-15 colon) was > 100 µM. For the same molecule, the TGI (A549 NSCLC) was > 100 µM and the TGI (K-562 leukemia) was > 100 µM.
Work on `Cc1cccc2c(NCCCN(C)C)c3c([N+](=O)[O-])ccc(C)c3nc12` yielded a TGI (OVCAR-3 ovarian) of 0.357 µM, a TGI (COLO 205 colon) of 0.218 µM and a TGI (MDA-N) of 0.498 µM. It also gave a TGI (CAKI-1 renal) of 2.61 µM, a TGI (SF-539 CNS) of 1.12 µM and a TGI (SN12C renal) of 0.948 µM. For the same molecule, the TGI (NCI/ADR-RES ovarian) was 3.37 µM, the TGI (SK-MEL-28 melanoma) was 5.87 µM and the TGI (SF-295 CNS) was 0.451 µM. For the same molecule, the TGI (HOP-92 NSCLC) was 0.416 µM, the TGI (HOP-62 NSCLC) was 0.265 µM and the TGI (OVCAR-4 ovarian) was 0.554 µM. The TGI (A498 renal) was 0.0269 µM, the TGI (SK-MEL-5 melanoma) was 0.251 µM and the TGI (HCT-116 colon) was 0.821 µM. It also gave a TGI (RPMI-8226 leukemia) of 3.17 µM, a TGI (NCI-H226 lung) of 0.458 µM and a TGI (EKVX NSCLC) of 0.36 µM. The TGI (MDA-MB-231 breast) was 0.601 µM, the TGI (U251 CNS) was 0.741 µM and the TGI (HCC-2998 colon) was < 0.0454 µM. The TGI (MOLT-4 leukemia) was 1.15 µM, the TGI (MALME-3M melanoma) was 0.375 µM and the TGI (786-0 renal) was 0.573 µM. For the same molecule, the TGI (UO-31 renal) was 0.492 µM, the TGI (UACC-257 melanoma) was 0.4 µM and the TGI (NCI-H460 lung) was 0.141 µM. For the same molecule, the TGI (ACHN renal) was 0.332 µM, the TGI (MCF7 breast) was 0.173 µM and the TGI (CCRF-CEM leukemia) was > 100 µM. It also gave a TGI (NCI-H522 lung) of 0.12 µM, a TGI (OVCAR-5 ovarian) of 0.744 µM and a TGI (KM12 colon) of 3.23 µM. For the same molecule, the TGI (OVCAR-8 ovarian) was 1.58 µM, the TGI (PC-3 prostate) was 0.259 µM and the TGI (RXF 393 renal) was 0.19 µM. For the same molecule, the TGI (MDA-MB-435) was 0.492 µM, the TGI (SW-620 colon) was 6 µM and the TGI (SNB-19 CNS) was 2.02 µM. The TGI (SK-MEL-2 melanoma) was 0.285 µM, the TGI (SNB-75 CNS) was 0.491 µM and the TGI (NCI-H23 lung) was 0.16 µM. For the same molecule, the TGI (TK-10 renal) was 0.709 µM, the TGI (HL-60(TB) leukemia) was 1.39 µM and the TGI (M14 melanoma) was 0.297 µM. It also gave a TGI (SK-OV-3 ovarian) of 0.982 µM, a TGI (T-47D breast) of 0.758 µM and a TGI (BT-549 breast) of 0.858 µM. For the same molecule, the TGI (HT29 colon) was 1.39 µM, the TGI (IGROV1 ovarian) was 0.666 µM and the TGI (SF-268 CNS) was 1.48 µM. For the same molecule, the TGI (LOX IMVI melanoma) was 0.607 µM, the TGI (UACC-62 melanoma) was 0.284 µM and the TGI (HS 578T breast) was 2.96 µM. For the same molecule, the TGI (DU-145 prostate) was 0.651 µM, the TGI (HCT-15 colon) was 0.592 µM and the TGI (A549 NSCLC) was 0.778 µM. For the same molecule, the TGI (K-562 leukemia) was 3.94 µM.
For `COc1cc(C(=O)N(C)N(C)C)cc(OC)c1OC`, the TGI (OVCAR-3 ovarian) was > 10 µM, the TGI (COLO 205 colon) was > 10 µM and the TGI (MDA-N) was > 10 µM. The TGI (CAKI-1 renal) was > 10 µM, the TGI (SF-539 CNS) was > 10 µM and the TGI (SN12C renal) was > 10 µM. For the same molecule, the TGI (NCI/ADR-RES ovarian) was > 10 µM, the TGI (SK-MEL-28 melanoma) was > 10 µM and the TGI (SF-295 CNS) was > 10 µM. The TGI (HOP-92 NSCLC) was > 10 µM, the TGI (HOP-62 NSCLC) was > 10 µM and the TGI (OVCAR-4 ovarian) was > 10 µM. For the same molecule, the TGI (A498 renal) was > 10 µM, the TGI (SK-MEL-5 melanoma) was > 10 µM and the TGI (HCT-116 colon) was > 10 µM. For the same molecule, the TGI (RPMI-8226 leukemia) was > 10 µM, the TGI (NCI-H226 lung) was > 10 µM and the TGI (EKVX NSCLC) was > 10 µM. For the same molecule, the TGI (MDA-MB-231 breast) was > 10 µM, the TGI (U251 CNS) was > 10 µM and the TGI (HCC-2998 colon) was > 10 µM. For the same molecule, the TGI (MOLT-4 leukemia) was > 10 µM, the TGI (MALME-3M melanoma) was > 10 µM and the TGI (786-0 renal) was > 10 µM. For the same molecule, the TGI (UO-31 renal) was > 10 µM, the TGI (UACC-257 melanoma) was > 10 µM and the TGI (NCI-H460 lung) was > 10 µM. The TGI (ACHN renal) was > 10 µM, the TGI (MCF7 breast) was > 10 µM and the TGI (CCRF-CEM leukemia) was > 10 µM. The TGI (NCI-H522 lung) was > 10 µM, the TGI (OVCAR-5 ovarian) was > 10 µM and the TGI (KM12 colon) was > 10 µM. For the same molecule, the TGI (OVCAR-8 ovarian) was > 10 µM, the TGI (PC-3 prostate) was > 10 µM and the TGI (RXF 393 renal) was > 10 µM. For the same molecule, the TGI (MDA-MB-435) was > 10 µM, the TGI (SW-620 colon) was > 10 µM and the TGI (SNB-19 CNS) was > 10 µM. For the same molecule, the TGI (SK-MEL-2 melanoma) was > 10 µM, the TGI (SNB-75 CNS) was > 10 µM and the TGI (NCI-H23 lung) was > 10 µM. The TGI (TK-10 renal) was > 10 µM, the TGI (HL-60(TB) leukemia) was > 10 µM and the TGI (M14 melanoma) was > 10 µM. The TGI (SK-OV-3 ovarian) was > 10 µM, the TGI (T-47D breast) was > 10 µM and the TGI (BT-549 breast) was > 10 µM. For the same molecule, the TGI (HT29 colon) was > 10 µM, the TGI (IGROV1 ovarian) was > 10 µM and the TGI (SF-268 CNS) was > 10 µM. The TGI (LOX IMVI melanoma) was > 10 µM, the TGI (UACC-62 melanoma) was > 10 µM and the TGI (HS 578T breast) was > 10 µM. For the same molecule, the TGI (DU-145 prostate) was > 10 µM, the TGI (HCT-15 colon) was > 10 µM and the TGI (A549 NSCLC) was > 10 µM. The TGI (K-562 leukemia) was > 10 µM.
